The values that follow come from patent US20050226878A1, “Therapeutic combinations and methods including IRM compounds” (3M Innovative Properties Company, priority 2003, published 2005).

Each structure is given as a SMILES string.

Assay [1] deals with Peripheral blood mononuclear cells (PBMCs). Kind of assay: Example 1: TNF-α secreted by PBMCs treated with IRM1 after dexamethasone pre-incubation (ELISA). The class given is cell-based, human. The note with it: IRM1 1 μM, no dexamethasone, 24 hours. From the text: (§1) Whole blood from healthy human donors was collected by venipuncture into EDTA vacutainer tubes (Becton Dickinson Labware, Lincoln Park, N.J.). Peripheral blood mononuclear cells (PBMCs) are separated from whole blood by density gradient centrifugation using HISTOPAQUE-1077 (Sigma-Aldrich Chemical Co., St. Louis, Mo.). The PBMCs are washed twice with Hank's Balanced Salts Solution (Celox Laboratories, Inc., Hopkins, Minn.) and then are suspended at 3-4×10^6 cells/mL in RPMI complete culture medium (Celox Laboratories, Inc., Hopkins, Minn.). The PBMC suspension was added to 48 well flat bottom sterile tissue culture plates (Becton Dickinson Labware, Lincoln Park, N.J.) containing an equal volume of RPMI complete media containing dexamethasone (Sigma Chemical Co., St. Louis, Mo.) at one of the dexamethasone concentrations indicated in Table 2. After one hour, IRMI was added to a final concentration of 1 μM, and then incubated at 37° C. for an additional 24 hours. Following incubation the cells were centrifuged for 5-10 minutes at 1000 rpm (˜200×g) at 4° C. […] The samples were analyzed for IFN-α and TNF-α secreted into the culture medium. The concentration of secreted IFN-α was determined by ELISA using a Human Multi-Species kit (PBL Biomedical Laboratories, Piscataway, N.J.). […]
For orientation: In an ELISA, binding on a coated surface is turned into a signal by an enzyme label.

The test system is the same in assay [2]. Kind of assay: Example 1: IFN-α secreted by PBMCs treated with IRM1 after dexamethasone pre-incubation (ELISA). The note with it: IRM1 1 μM, no dexamethasone, 24 hours. The class given is cell-based, human.
Source text: as §1

The test system of assay [3] is Human PBMCs. Kind of assay: Example 4: IFN secreted by PBMCs with or without anti-TNF monoclonal antibody (virus neutralization bioassay, A549 cells/encephalomyocarditis virus). The class given is cell-based. The following applies: IRM2 1.0 μg/mL, LPS 0.1 μg/mL, 24 hours. The protocol:
(§2) Human PBMCs were collected and prepared as described in Example 1. The cells were incubated with an anti-TNF monoclonal antibody (mouse anti-human TNF, Promega Corp., Madison, Wis.). After one hour, the cells were treated with IRM compound, LPS, or left unstimulated, and then incubated for an additional 24 hours.
Secreted IFN was assayed using a virus neutralization bioassay using A549 human lung carcinoma cells challenged with encephalomyocarditis. The details of the bioassay method have been described by G. L. Brennan and L. H. Kronenberg in “Automated Bioassay of Interferons in Micro-test Plates”, Biotechniques, June/July, 78, 1983, incorporated herein by reference. Briefly stated the method is as follows: A549 cells are incubated with dilutions of samples or a standard interferon at 37° C. for 24 hours. The incubated cells are then infected with an inoculum of encephalomyocarditis virus. The infected cells are incubated for an additional 24 hours at 37° C. before evaluating for viral cytopathic effect. The viral cytopathic effect is quantified by staining with crystal violet followed by visual scoring of the plates. Results are expressed as alpha reference units/mL based on the value obtained for NIH Human Leukocyte IFN standard.

In assay [4] the test system is Human PBMCs. Kind of assay: Example 4: IL-6 secreted by PBMCs with or without anti-TNF monoclonal antibody (ELISA). The class given is cell-based. The following applies: IRM2 1.0 μg/mL, LPS 0.1 μg/mL, 24 hours. The protocol:
as §2
(§3) Secreted TNF-α and IL-6 were assayed by ELISA (Biosource International, Inc., Camarillo, Calif.). Results are expressed in pg/mL for each cytokine.

Assay [5] deals with Human PBMCs. The experiment in a line: Example 4: TNF-α secreted by PBMCs with or without anti-TNF monoclonal antibody (ELISA). The class given is cell-based. The note with it: IRM2 1.0 μg/mL, LPS 0.1 μg/mL, 24 hours. The procedure:
as §2, §3

The next assay relates to male CFW mice. The experiment in a line: Example 3: serum TNF in mice challenged with IRM2 after oral dexamethasone (ELISA). It counts as in vivo. The note with it: IRM2 10 mg/kg, no dexamethasone. The protocol: A dexamethasone solution was prepared in saline and administered orally (3 mg/kg) to male CFW mice (Charles River Laboratories, Inc., Wilmington, Mass.) once or once daily for five days. Thirty minutes after the final administration of dexamethasone, the mice were challenged with a solution of IRM2 prepared in saline to provide a dose of 10 mg/kg. The mice were bled either 2 hours or 3 hours after being challenged with IRM2. Serum samples were analyzed by for TNF by ELISA as described in Example 1.

Assay [6] has as its system Human PBMCs. Kind of assay: Example 2: TNF-α secreted by PBMCs treated with IRM compound or LPS after dexamethasone pre-incubation (ELISA). The class given is cell-based. The following applies: IRM2 1.0 μg/mL, LPS 0.1 μg/mL, 24 hours. The procedure: Human PBMCs were collected and prepared as described in Example 1. After one hour, the cells were treated with IRM compound, LPS, or left unstimulated, and then incubated for an additional 24 hours.
Secreted TNF-α was assayed by ELISA (Biosource International, Inc., Camarillo, Calif.).

The subject of assay [7] is PBMCs. The experiment in a line: Example 6: IFN-α induction by PBMCs with anti-TNF antibody or isotype control (ELISA, FIG. 1). The class given is cell-based, human. The following applies: for IFN-α produced in combination with anti-TNF antibody versus IRM alone: IRM 3 μM + 1 μg/mL anti-TNF antibody, FIG. 1B versus FIG. 1A. The procedure: (§4) Whole blood from healthy human donors was collected by venipuncture into EDTA vacutainer tubes (Becton Dickinson Labware, Lincoln Park, N.J.). […] The PBMCs are washed twice with Phosphate Buffered Saline (PBS, Biosource, Camarillo, Calif.) and then are suspended at 5×10^6 cells/mL in RPMI complete culture medium (Celox Laboratories, Inc., Hopkins, Minn.). One milliliter of the PBMC suspension and 1.5 milliliter of RPMI complete media were added to each well of a 24 well flat bottom sterile tissue culture plate (Becton Dickinson Labware, Lincoln Park, N.J.) for a final PBMC concentration of 2×10^6 cells/mL.
(§5) Following incubation the cells were centrifuged for 5-10 minutes at 1000 rpm (˜200×g) at 4° C. The cell-free culture supernatant was removed with a sterile polypropylene pipette and transferred to sterile polypropylene tubes. Samples were maintained at −70° C. until analysis.
(§6) The samples were analyzed for IFN-α, TNF-α and IFN-γ secreted into the culture medium. The concentration of secreted IFN-α was determined by ELISA using a Human Multi-Species kit (PBL Biomedical Laboratories, Piscataway, N.J.). Secreted TNF-α and IFN-γ were analyzed using a human-specific TNF-α BV™ or IFN-γ BV™ immunoassay (BioVeris Corp., Gaithersburg, Md.).

In assay [8] the test system is PBMCs. The experiment in a line: Example 6: TNF-α induction by PBMCs with anti-TNF antibody or isotype control (immunoassay, FIG. 2). The note with it: for TNF-α induced in combination with anti-TNF antibody: IRM 3 μM + 1 μg/mL anti-TNF antibody, FIG. 2B; for TNF-α induction: IRM 3 μM alone (isotype control antibody), FIG. 2A. The class given is cell-based, human. The procedure:
as §4, §5, §6

[9] abbreviates: +Ab (anti-TNF monoclonal antibody).

In [1], `CCOCc1nc2c(N)nc3ccccc3c2n1CC(C)(C)O` [IRM1, 4-amino-α,α-dimethyl-2-ethoxymethyl-1H-imidazo[4,5-c]quinolin-1-ethanol] yielded a TNF of 3000 pg/mL. This molecule displayed an IFN in [2] of 959 U/mL.

As to `Cc1nc2c(N)nc3ccccc3c2n1CC(C)(C)O` [IRM2, 4-amino-α,α,2-trimethyl-1H-imidazo[4,5-c]quinoline-1-ethanol], the figures for the IFN in the assay with Human PBMCs [3] (setting [9]) and in the assay on Human PBMCs [3] (No Ab) were 290 U/mL and 460 U/mL, respectively. Also, the values for the IL-6 with Human PBMCs [4] (setting [9]) and with Human PBMCs [4] (No Ab) were 24189 pg/mL and 20137 pg/mL, respectively. The TNF with Human PBMCs [5] (setting [9]) is 61 pg/mL; in the assay on Human PBMCs [5] (No Ab), 1340 pg/mL. Besides, the “Serum TNF” value with male CFW mice (2 hrs. post-challenge) came out at 2983 pg/mL; in the assay on male CFW mice (3 hrs. post-challenge), 487 pg/mL. For the same molecule, the “Secreted TNF-α” value amounted to 1570 pg/mL in the assay with Human PBMCs [6] (0 μM Dex.), 775 pg/mL in the assay with Human PBMCs [6] (0.01 μM Dex.), 224 pg/mL in the assay on Human PBMCs [6] (0.1 μM Dex.) and 191 pg/mL in the assay with Human PBMCs [6] (1.0 μM Dex.).

As to `CCOCc1nc2c(N)nc3c(c2n1CC(C)(C)O)CCCC3` [IRM5, 4-amino-2-(ethoxymethyl)-α,α-dimethyl-6,7,8,9-tetrahydro-1H-imidazo[4,5-c]quinoline-1-ethanol], the “IFN-α produced in combination with anti-TNF antibody versus IRM alone” value in the assay with PBMCs [7] is “increased levels”. Moreover, in the assay on PBMCs [8], the “TNF-α induced in combination with anti-TNF antibody” value is on record as “substantially limited” and the TNF-α induction entry was “significant levels”.

With `CCc1nc2c(N)nc3ccccc3c2n1CCCCNS(C)(=O)=O` [IRM8, N-[4-(4-amino-2-ethyl-1H-imidazo[4,5-c]quinolin-1-yl)butyl]methanesulfonamide], in the assay on PBMCs [7], the “IFN-α produced in combination with anti-TNF antibody versus IRM alone” value is “increased levels”. Moreover, in the assay on PBMCs [7] (IRM 3 μM alone (isotype control antibody), FIG. 1A, compared to other IRM compounds), the IFN-α induction entry is “relatively potent inducer”. Moreover, the TNF-α induction entry in the assay on PBMCs [8] is listed as “relatively poor inducer”.

`COCCc1nc2c(N)nc3ccccc3c2n1CCOCCNC(=O)N1CCOCC1` [IRM12, N-(2-{2-[4-amino-2-(2-methoxyethyl)-1H-imidazo[4,5-c]quinolin-1-yl]ethoxy}ethyl)morpholine-4-carboxamide]: in the assay with PBMCs [7], the “IFN-α produced in combination with anti-TNF antibody versus IRM alone” value is on record as “increased levels”. Further, in the assay with PBMCs [8], the “TNF-α induced in combination with anti-TNF antibody” value is reported as “substantially limited” and the TNF-α induction result is reported as “significant levels”.
